{"source": "patent US20170334891A1", "about": "“ENHANCER OF ZESTE HOMOLOG 2 INHIBITORS” (GLAXOSMITHKLINE INTELLECTUAL PROPERTY (NO.2) LIMITED, priority 2014, published 2017)", "data": [{"biological_target": "T1, EZH2 within the PRC2 complex (Homo sapiens, UniProt Q15910)", "T1 construct": "FLAG; made in house; host or cells: Sf9 cells", "T1 sequence (Q15910 whole entry)": "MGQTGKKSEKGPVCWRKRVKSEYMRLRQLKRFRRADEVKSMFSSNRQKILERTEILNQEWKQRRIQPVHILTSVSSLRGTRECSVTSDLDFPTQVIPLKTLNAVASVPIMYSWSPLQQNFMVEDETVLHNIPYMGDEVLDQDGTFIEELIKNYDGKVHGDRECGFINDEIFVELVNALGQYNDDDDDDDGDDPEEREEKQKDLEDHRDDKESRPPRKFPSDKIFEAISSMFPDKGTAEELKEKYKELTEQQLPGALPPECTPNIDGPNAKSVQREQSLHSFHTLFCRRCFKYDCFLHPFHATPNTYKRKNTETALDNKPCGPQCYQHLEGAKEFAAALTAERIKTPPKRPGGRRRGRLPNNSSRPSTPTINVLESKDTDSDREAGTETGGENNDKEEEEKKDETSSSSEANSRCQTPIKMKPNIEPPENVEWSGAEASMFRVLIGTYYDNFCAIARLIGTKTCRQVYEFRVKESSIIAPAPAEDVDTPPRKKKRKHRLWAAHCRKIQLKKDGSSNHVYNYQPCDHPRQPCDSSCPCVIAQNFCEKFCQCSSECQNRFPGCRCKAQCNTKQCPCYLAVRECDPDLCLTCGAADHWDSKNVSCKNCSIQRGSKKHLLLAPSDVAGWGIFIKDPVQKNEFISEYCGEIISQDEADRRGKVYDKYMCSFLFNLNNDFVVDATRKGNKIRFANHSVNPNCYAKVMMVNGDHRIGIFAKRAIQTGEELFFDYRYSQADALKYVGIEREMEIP", "T1 sequence (O75530 whole entry partner)": "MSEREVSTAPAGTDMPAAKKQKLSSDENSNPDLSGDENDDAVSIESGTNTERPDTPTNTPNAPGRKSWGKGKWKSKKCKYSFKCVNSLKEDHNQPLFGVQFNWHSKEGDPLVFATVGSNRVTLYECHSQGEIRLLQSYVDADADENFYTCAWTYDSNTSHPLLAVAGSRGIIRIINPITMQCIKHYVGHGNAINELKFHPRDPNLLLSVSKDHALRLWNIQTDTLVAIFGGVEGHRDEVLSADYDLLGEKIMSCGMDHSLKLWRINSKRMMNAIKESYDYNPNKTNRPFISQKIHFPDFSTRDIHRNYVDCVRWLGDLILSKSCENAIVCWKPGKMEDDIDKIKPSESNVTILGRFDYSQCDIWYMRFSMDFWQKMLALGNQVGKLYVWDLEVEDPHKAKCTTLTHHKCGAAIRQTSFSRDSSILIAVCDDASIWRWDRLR", "T1 sequence (Q15022 whole entry partner)": "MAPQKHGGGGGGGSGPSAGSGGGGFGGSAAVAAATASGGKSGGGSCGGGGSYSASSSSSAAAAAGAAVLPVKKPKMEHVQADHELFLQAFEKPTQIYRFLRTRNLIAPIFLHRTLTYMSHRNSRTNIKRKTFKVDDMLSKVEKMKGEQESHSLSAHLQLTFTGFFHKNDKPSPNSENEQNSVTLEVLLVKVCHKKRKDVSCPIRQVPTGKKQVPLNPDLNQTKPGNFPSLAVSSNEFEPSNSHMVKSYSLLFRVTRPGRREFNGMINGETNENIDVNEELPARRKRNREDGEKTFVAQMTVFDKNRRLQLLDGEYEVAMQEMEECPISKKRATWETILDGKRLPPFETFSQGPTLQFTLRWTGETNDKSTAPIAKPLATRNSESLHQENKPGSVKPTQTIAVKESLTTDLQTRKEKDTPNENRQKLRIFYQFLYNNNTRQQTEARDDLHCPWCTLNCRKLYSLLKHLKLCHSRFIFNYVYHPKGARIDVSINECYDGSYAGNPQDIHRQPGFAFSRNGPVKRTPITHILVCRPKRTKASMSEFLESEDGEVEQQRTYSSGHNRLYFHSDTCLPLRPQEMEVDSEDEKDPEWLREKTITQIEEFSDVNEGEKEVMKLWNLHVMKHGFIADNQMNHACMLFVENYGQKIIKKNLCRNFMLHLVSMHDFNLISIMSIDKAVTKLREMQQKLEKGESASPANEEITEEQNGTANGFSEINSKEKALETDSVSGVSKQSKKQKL", "T1 sequence (Q09028 whole entry partner)": "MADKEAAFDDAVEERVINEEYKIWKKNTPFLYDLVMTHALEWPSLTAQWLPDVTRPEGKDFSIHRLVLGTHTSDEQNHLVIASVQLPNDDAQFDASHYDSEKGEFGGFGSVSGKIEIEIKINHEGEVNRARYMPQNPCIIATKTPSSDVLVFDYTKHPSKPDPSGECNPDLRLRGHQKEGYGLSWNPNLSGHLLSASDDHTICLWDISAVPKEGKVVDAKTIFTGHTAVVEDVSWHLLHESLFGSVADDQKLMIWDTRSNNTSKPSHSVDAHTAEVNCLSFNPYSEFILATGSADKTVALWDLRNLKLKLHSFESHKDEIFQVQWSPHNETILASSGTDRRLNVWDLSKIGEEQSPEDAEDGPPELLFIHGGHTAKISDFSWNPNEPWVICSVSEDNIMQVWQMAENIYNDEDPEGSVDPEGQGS", "T1 sequence (Q6ZN18 whole entry partner)": "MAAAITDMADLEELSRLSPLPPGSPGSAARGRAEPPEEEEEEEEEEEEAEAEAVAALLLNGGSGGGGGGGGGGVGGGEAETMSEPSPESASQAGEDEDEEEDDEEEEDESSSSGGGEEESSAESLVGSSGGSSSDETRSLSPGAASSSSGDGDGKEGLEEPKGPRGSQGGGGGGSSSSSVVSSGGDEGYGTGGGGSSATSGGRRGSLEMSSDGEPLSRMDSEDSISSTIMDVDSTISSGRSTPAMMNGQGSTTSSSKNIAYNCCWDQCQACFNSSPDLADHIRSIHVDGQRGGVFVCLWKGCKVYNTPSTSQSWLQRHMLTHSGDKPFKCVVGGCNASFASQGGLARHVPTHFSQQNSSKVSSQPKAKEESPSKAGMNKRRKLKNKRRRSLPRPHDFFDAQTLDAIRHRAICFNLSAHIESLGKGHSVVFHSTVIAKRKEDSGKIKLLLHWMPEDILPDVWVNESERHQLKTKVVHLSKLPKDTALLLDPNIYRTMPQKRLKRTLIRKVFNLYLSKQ", "experiment": "EZH2 methyltransferase scintillation proximity assay (SPA)", "assay_type": "biochemical", "conditions": "Human PRC2 5 member complex (FLAG-EZH2, EED, SUZ12, RbAp48, AEBP2), 1 nM enzyme, biotinylated histone H3K27 peptide, 3H-SAM, 60 min at room temperature", "procedure": "Compounds contained herein were evaluated for their ability to inhibit the methyltransferase activity of EZH2 within the PRC2 complex. Human PRC2 complex was prepared by co-expressing each of the 5 member proteins (FLAG-EZH2, EED, SUZ12, RbAp48, AEBP2) in Sf9 cells followed by co-purification. Enzyme activity was measured in a scintillation proximity assay (SPA) where a tritiated methyl group is transferred from 3H-SAM to a lysine residue on a biotinylated, unmethylated peptide substrate derived from histone H3. The peptides were captured on streptavidin-coated SPA beads and the resulting signal was read on a ViewLux plate reader.\n• 1. Prepare 10 mM stock of compounds from solid in 100% DMSO. • 2. Set up an 11-point serial dilution (1:4 dilution, top concentration 10 mM) in 100% DMSO for each test compound in a 384 well plate leaving columns 6 and 18 for DMSO controls. • 3. Dispense 10 nL of compound from the dilution plate into reaction plates (Corning, 384-well polystyrene NBS, Cat#3673).\nPrepare the following solutions: • 1. 1× Base Buffer, 50 mM Tris-HCl, pH 8, 2 mM MgCl2: Per 1 L of base buffer, combine 1 M Tris-HCl, pH 8 (50 mL), 1 M MgCl2 (2 mL), and distilled water (948 mL). • 2. 1× Assay Buffer: Per 10 mL of 1× Assay Buffer, combine 1× Base Buffer (9.96 mL), 1 M DTT (40 uL), and 10% Tween-20 (1 uL) to provide a final concentration of 50 mM Tris-HCl, pH 8, 2 mM MgCl2, 4 mM DTT, 0.001% Tween-20. • 3. 2× Enzyme Solution: Per 10 mL of 2× Enzyme Solution, combine 1× Assay Buffer (9.99 mL) and 3.24 uM EZH2 5 member complex (6.17 uL) to provide a final enzyme concentration of 1 nM. • 4. SPA Bead Solution: Per 1 mL of SPA Bead Solution, combine Streptavidin coated SPA beads (PerkinElmer, Cat# RPNQ0261, 40 mg) and 1× Assay Buffer (1 mL) to provide a working concentration of 40 mg/mL. • 5. 2× Substrate Solution: Per 10 mL of 2× Substrate Solution, combine 40 mg/mL SPA Bead Solution (375 uL), 1 mM biotinylated histone H3K27 peptide (200 uL), 12.5 uM 3H-SAM (240 uL; 1 mCi/mL), 1 mM cold SAM (57 uL), and 1× Assay Buffer (9.13 mL) to provide a final concentration of 0.75 mg/mL SPA Bead Solution, 10 uM biotinylated histone H3K27 peptide, 0.15 uM 3H-SAM (˜12 uCi/mL 3H-SAM), and 2.85 uM cold SAM. • 6. 2.67× Quench Solution: Per 10 mL of 2.67× Quench Solution, combine 1× Assay Buffer (9.73 mL) and 10 mM cold SAM (267 uL) to provide a final concentration of 100 uM cold SAM.\n• 1. Stamp 10 nL/well of 1000× Compound to test wells (as noted above). • 2. Stamp 10 nL/well of 100% DMSO to columns 6 & 18 (high and low controls, respectively).\n• 1. Dispense 5 uL/well of 1× Assay Buffer to column 18 (low control reactions). • 2. Dispense 5 uL/well of 2× Substrate Solution to columns 1-24 (note: substrate solution should be mixed to ensure homogeneous bead suspension before dispensing into matrix reservoir). • 3. Dispense 5 uL/well of 2× Enzyme Solution to columns 1-17, 19-24. • 4. Incubate the reaction for 60 min at room temperature.\n• 1. Dispense 6 uL/well of the 2.67× Quench Solution to columns 1-24. • 2. Seal assay plates and spin for ˜1 min at 500 rpm. • 3. Dark adapt plates in the ViewLux instrument for 15-60 min.\n• 1. Read the assay plates on the Viewlux Plate Reader utilizing the 613 nm emission filter or clear filter (300 s exposure). Reagent addition can be done manually or with automated liquid handler.\nPercent inhibition was calculated relative to the DMSO control for each compound concentration and the resulting values were fit using standard IC50 fitting parameters within the ABASE data fitting software package.\nThe IC50 values of <10 nM indicate that the activity of compound was approaching the limit of detection in the assay. Repeating the assay run(s) may result in somewhat different IC50 values.", "units": {"IC50": "nM"}, "values": [{"smiles": "CC[C@@H](c1scc(C(=O)NCc2c(C)cc(C)[nH]c2=O)c1C)C1CCN(CC(F)F)CC1", "note": "[Example 21, (R)-5-(1-(1-(2,2-Difluoroethyl)piperidin-4-yl)propyl)-N-((4,6-dimethyl-2-oxo-1,2-dihydropyridin-3-yl)methyl)-4-methylthiophene-3-carboxamide]", "IC50": "≤ 10"}, {"smiles": "Cc1cc(C)c(CNC(=O)c2csc([C@H](C)C3CCN(CC(F)F)CC3)c2C)c(=O)[nH]1", "note": "[Example 22, (R)-5-(1-(1-(2,2-Difluoroethyl)piperidin-4-yl)ethyl)-N-((4,6-dimethyl-2-oxo-1,2-dihydropyridin-3-yl)methyl)-4-methylthiophene-3-carboxamide]", "IC50": "≤ 10"}, {"smiles": "Cc1cc(C)c(CNC(=O)c2csc([C@H](C)C3CCN(CC(C)(F)F)CC3)c2C)c(=O)[nH]1", "note": "[Example 23, (R)-5-(1-(1-(2,2-Difluoropropyl)piperidin-4-yl)ethyl)-N-((4,6-dimethyl-2-oxo-1,2-dihydropyridin-3-yl)methyl)-4-methylthiophene-3-carboxamide]", "IC50": "≤ 10"}]}]}
